In patent EP2459551B1, “DIHYDROBENZOINDAZOLES” (Merck Sharp & Dohme B.V., priority 2009, dated 2011):
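Further: CHO cells stably expressing human FSH receptor with CRE-driven firefly luciferase, luminescence read as counts per second after 4 h compound exposure in 1% DMSO.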

What follows are compounds tested against T1, human FSH receptor (Homo sapiens, UniProt P23945).
T1 sequence (P23945 18-695): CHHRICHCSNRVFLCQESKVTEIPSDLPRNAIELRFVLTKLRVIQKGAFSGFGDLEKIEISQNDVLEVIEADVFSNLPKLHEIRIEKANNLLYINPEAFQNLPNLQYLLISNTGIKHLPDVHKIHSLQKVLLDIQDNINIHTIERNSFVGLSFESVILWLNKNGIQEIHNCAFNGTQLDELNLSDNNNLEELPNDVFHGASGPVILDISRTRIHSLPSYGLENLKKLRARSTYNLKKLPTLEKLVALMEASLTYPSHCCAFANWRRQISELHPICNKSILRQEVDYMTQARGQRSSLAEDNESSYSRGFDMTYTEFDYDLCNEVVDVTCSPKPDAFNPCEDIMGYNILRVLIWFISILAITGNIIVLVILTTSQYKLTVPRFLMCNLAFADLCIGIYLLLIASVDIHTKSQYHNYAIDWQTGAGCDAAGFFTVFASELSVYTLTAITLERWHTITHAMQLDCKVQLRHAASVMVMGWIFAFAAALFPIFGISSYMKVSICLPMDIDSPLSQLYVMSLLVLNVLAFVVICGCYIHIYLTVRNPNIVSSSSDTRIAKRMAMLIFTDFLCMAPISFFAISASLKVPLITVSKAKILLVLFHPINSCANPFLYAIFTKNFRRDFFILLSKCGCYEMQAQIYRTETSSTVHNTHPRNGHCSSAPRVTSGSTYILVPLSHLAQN
Description: Agonistic activity of compounds at the human FSH receptor expressed in CHO cells
Agonistic activity of the compounds at the human FSH receptor was determined in Chinese Hamster Ovary (CHO) cells stably transfected with the human FSH receptor and cotransfected with a cAMP responsive element (CRE)/promotor directing the expression of a firefly luciferase reporter gene. […] Cells (7,500 cells/well of a 384 well plate) were incubated in Dulbecco' minimal essential F12 modified medium (Invitrogen), supplemented with 1 µg/ml bovine insulin, 5 µg/ml human apotransferrin, 80 U/ml penicillin G and 80 µg/ml streptomycin with the test compounds (concentration between 0.0316 nM and 10.0 µM) in duplicate in a humidified atmosphere (95%) at 5-7% CO2 and 37°C. The final concentration of DMSO was 1%. After 4 hours of incubation, plates were allowed to adjust to room temperature for 1 hour. Then, Luclite (PerkinElmer) solution was added to the wells and cells were allowed to lyse for at least 1 hour at room temperature. Subsequently, luciferase activity was measured in a luminescence counter. The signal is expressed as counts per second (cps). The EC50 (concentration of the test compound that elicits half-maximal (50 %) luciferase stimulation compared to the compound's maximally attainable effect) and efficacy values (maximal effect of the test compound as percentage of the maximal effect of recombinant human FSH) of the compounds were determined using the software program MathIQ (version 2.0, ID Business Solutions Limited).
Work on `COc1cc2c(cc1OC(C)C)-c1c(c(C(=O)N(C)C(C)(C)C)nn1-c1nc3ccccc3s1)CC2` [Example 4d, 1-(benzo[d]thiazol-2-yl)-N-tert-butyl-8-isopropoxy-7-methoxy-N-methyl-4,5-dihydro-1H-benzo[g]indazole-3-carboxamide] yielded an EC50 of 1000 to 10000 nM.
Work on `COc1cc2c(cc1NC(=O)CN(C)C)-c1c(c(C(=O)N(C)C(C)(C)C)nn1-c1cccc(C)c1)CC2` [Example 12jc, N-tert-butyl-8-(2-(dimethylamino)acetamido)-7-methoxy-N-methyl-1-m-tolyl-4,5-dihydro-1H-benzo[g]indazole-3-carboxamide] yielded an EC50 of 1000 to 10000 nM.
`COc1cc2c(cc1OC(C)C)-c1c(c(C(=O)N(C)C(C)(C)C)nn1-c1ccc(F)cc1)CC2` [Example 13cd, N-tert-butyl-1-(4-fluorophenyl)-8-isopropoxy-7-methoxy-N-methyl-4,5-dihydro-1H-benzo[g]indazole-3-carboxamide] was tested, and the EC50 was 100 to 1000 nM.
`COc1cc2c(cc1NC(=O)CN1CCN(C)CC1)-c1c(c(C(=O)N(C)C(C)(C)C)nn1-c1cccc(C)c1)CC2` [Example 12ja, N-tert-butyl-7-methoxy-N-methyl-8-(2-(4-methylpiperazin-1-yl)acetamido)-1-m-tolyl-4,5-dihydro-1H-benzo[g]indazole-3-carboxamide] was tested, and the EC50 was 1000 to 10000 nM.
`COc1cc2c(cc1NC(=O)c1cocn1)-c1c(c(C(=O)N(C)C(C)(C)C)nn1-c1cccc(C)c1)CC2` [Example 12g] gave an EC50 of 1000 to 10000 nM.
For `COc1cc2c(cc1OC)-c1c(c(C(=O)N3CCCN(C(C)=O)CC3)nn1-c1ccc(F)cc1)CC2` [Example 1f], the EC50 was 1000 to 10000 nM.
`CC=Cc1ccccc1-n1nc(C(=O)N(C)C(C)(C)C)c2c1-c1cc(OC(C)C)c(OC)cc1CC2` [Example 9cb, 1-(2-(2-methylvinyl)-phenyl)-N-tert-butyl-8-isopropoxy-7-methoxy-N-methyl-4,5-dihydro-1H-benzo[g]indazole-3-carboxamide] showed an EC50 of 1000 to 10000 nM.
`COc1cc2c(cc1OC(C)C)-c1c(c(C(=O)N(C)C(C)(C)C)nn1-c1ccccc1Br)CC2` [Example 9ca, 1-(2-bromophenyl)-N-tert-butyl-8-isopropoxy-7-methoxy-N-methyl-4,5-dihydro-1H-benzo[g]indazole-3-carboxamide] was tested, and the EC50 was 100 to 1000 nM.
`COc1cc2c(cc1OC(C)C)-c1c(c(C(=O)N(C)C(C)(C)C)nn1-c1cccc(C3CC3)c1)CC2` [Example 7cf, N-tert-butyl-1-(3-cyclopropylphenyl)-8-isopropoxy-7-methoxy-N-methyl-4,5-dihydro-1H-benzo[g]indazole-3-carboxamide] showed an EC50 of 100 to 1000 nM.
Work on `COc1cc2c(cc1OC(C)C)-c1c(c(C(=O)N(C)C(C)(C)C)nn1-c1cccc([N+](=O)[O-])c1)CC2` [Example 8ca, N-tert-butyl-8-isopropoxy-7-methoxy-N-methyl-1-(3-nitrophenyl)-4,5-dihydro-1H-benzo[g]indazole-3-carboxamide] yielded an EC50 of 1000 to 10000 nM.
`C=Cc1ccccc1-n1nc(C(=O)N(C)C(C)(C)C)c2c1-c1cc(OC(C)C)c(OC)cc1CC2` [Example 9cc, N-tert-butyl-8-isopropoxy-7-methoxy-N-methyl-1-(2-vinylphenyl)-4,5-dihydro-1H-benzo[g]indazole-3-carboxamide] showed an EC50 of 1000 to 10000 nM.
Compound `COc1cc2c(cc1OC)-c1c(c(C(=O)N(C)C(C)(C)C)nn1-c1ccc(F)cc1)CC2` [Example 1e, N-tert-butyl-1-(4-fluorophenyl)-7,8-dimethoxy-N-methyl-4,5-dihydro-1H-benzo[g]indazole-3-carboxamide] has an EC50 of 1000 to 10000 nM.
Work on `C=CCc1cccc(-n2nc(C(=O)N(C)C(C)(C)C)c3c2-c2cc(OC(C)C)c(OC)cc2CC3)c1` [Example 7ca, 1-(3-allylphenyl)-N-tert-butyl-8-isopropoxy-7-methoxy-N-methyl-4,5-dihydro-1H-benzo[g]indazole-3-carboxamide] yielded an EC50 of 1000 to 10000 nM.
With `COc1cc2c(cc1OC)-c1c(c(C(=O)N3CCCN(C(C)=O)CC3)nn1-c1ccsc1)CC2` [Example 14e, 1-(4-(7,8-dimethoxy-1-(thiophen-3-yl)-4,5-dihydro-1H-benzo[g]indazole-3-carbonyl)-1,4-diazepan-1-yl)ethanone] the EC50 was 1000 to 10000 nM.
